In patent publication US8173696B2, “Inhibitors of cysteine proteases and methods of use thereof” (Baylor University, priority 2007, dated 2012):
Like-named read-outs stand apart in the source and are kept apart here.

How the values were obtained:
[1] = molecular target: T1, Human liver cathepsin L (Homo sapiens, UniProt P07711); experiment: Cathepsin L inhibition in vitro (Z-FR-AMC fluorescence); assay type: biochemical
T1 construct: from tissue; host or cells: human liver
Experimental: Human liver cathepsin L (1 nM) was incubated in 50 mM sodium acetate buffer, pH 5.5 containing 1 mM EDTA, 2 mM DTT, 0.001% (v/v) brij 35 with potential inhibitors at 20 different concentrations (from 0.05 nM to 50 μM) at 25° C. for 5 minutes before 100 μL substrate (benzyloxycarbonyl-L-phenylalanyl-L-arginyl-7-amido-4-methylcoumarin, abbreviated as Z-FR-AMC, 50 μM in final assay condition) was added to the enzyme-inhibitor mixture; total volume was 200 μL. Controls were performed using enzyme alone, substrate alone, and enzyme with DMSO. […] Spectra were taken at 3-sec intervals for 3 minutes. IC50 values were determined by non-linear regression analysis using vo(inh)=VMAX/{1+10(logIC50−x)*Hillslope} and Prism software (GraphPad).

[2] = molecular target: Cruzain (Trypanosoma cruzi, UniProt P25779); experiment: biochemical; assay type: biochemical; settings: Table A; 0.1 nM cruzain, pH 5.50, 25° C., 10 μM Z-Phe-Arg-AMC
Experimental: Cruzain (0.1 nM) in 100 mM sodium acetate buffer (pH 5.50) containing 5 mM DTT was preincubated for 5 min at 25° C. with inhibitor.

[3] = molecular target: Cat B (Homo sapiens, UniProt P07858); experiment: Cathepsin B inhibition in vitro; assay type: biochemical
Experimental: For in vitro cysteine protease inhibition determinations, a compound's effectiveness can be given by an IC50 value. In these assays, the enzyme to be inhibited (e.g., a cruzain or cruzipain, a rhodesain, a brucipain, a congopain, a falcipain, CPB2.8 Delta CTE, a cathepsin-L, cathepsin-B, a cathepsin-H, a cathepsin-K, a cathepsin-S) is first incubated with varying concentrations (about 20-50,000 nM) of a test compound. To this is added a short peptide substrate of the enzyme of 1 to 10 amino acids, usually a di- or tri-peptide substrate, which is labeled with either a fluorogenic or chromogenic moiety. An exemplary chromogenic moiety is p-nitro-anilide (pNA). […] Exemplary peptide substrates include Phe-Arg, Arg-Arg, Phe-Arg-X (X=Ala, Arg), and Phe-X-Ser-Arg-Gln (X=Arg, 4-aminomethyl-phenylalanine (Arm), 4-aminomethyl-N-isopropyl-phenylalanin-e (laf), 4-piperidinyl-alanine (Ppa) or 4-aminocyclohexyl-alanine (Aca)). Cleavage of the labeled substrate induces a chromogenic or fluorescent signal that is measured using spectrophotometer or a spectrofluorometer, respectively. Signals induced in the presence of varying concentrations of test compound are measured in comparison to a positive control of enzyme and substrate and a negative control of enzyme in diluent (e.g., DMSO). Spontaneous cleavage of substrate is measured in controls with substrate alone. IC50 values are determined graphically using compound inhibitor concentrations in the linear portion of a plot of inhibition versus log [I].

[4] = system: cathepsin L; experiment: Inhibition of activated cathepsin L secreted in DU-145 cell conditioned media; assay type: cell-based; settings: compound 20 μM, replicate samples a-c
Experimental: (§1) A prostrate carcinoma derived cell line (DU-145) was maintained in free phenol red DMEM supplemented with 10% fetal bovine serum, 1% glutamine, 1% glutamax, 1% Penicillin-Streptomycin and 1 mM sodium pyruvate, at 37° C. in an atmosphere of 95% air/5% CO2. DU145 was plated at 4×10^6 cells/10 cm Petri dish for dense, super confluent density. These cultures were incubated for 3 days before collection. Twenty-four hours prior to harvesting, cells were fed with serum-free media or serum-free media containing inhibitors at a final concentration of 20 μM. On the day of harvesting, the serum-free medium was collected for assay of Cathepsin L activity secreted in the medium. The cells were rinsed in cold PBS (pH 7.2) and collected in cold PBS containing […]. The cells were lysed using a Sonicator (Misonix 3000) at medium setting with pauses at 0° C. for temperature equilibration. Then the homogenate was centrifuged at 13,000×g for 20 min and the supernatant saved. […] Fluorescence was measured in a Fluoro Max 2 (Jobin Yvon) spectrofluorometer at an excitation wavelength of 355 nm and an emission wavelength of 460 nm. The substrate is hydrolyzed by cathepsin L and to a smaller extent by cathepsin B, therefore the activity is referred to as cathepsin L+B activity. Data analysis was performed using Prism software (GraphPad version 4). Data corresponding to cathepsin L activity (after activation) in cell conditioned media in the presence of Compound 14 (20 μM) is summarized in Table 3 below. Data corresponding to cathepsin L activity (after activation) in cell conditioned media in the presence of Compound 27 (20 μM) is summarized in Table 4 below.

[5] = system: cathepsin L; experiment: Inhibition of activated cathepsin L in DU-145 cell lysates; assay type: cell-based; settings: DU-145 cell lysates preincubated for 24 h with compound, following removal of media, replicate samples a-c; for activity (cathepsin L activity after activation): control 6.93E−03; for cps (cathepsin L activity after activation): control 26950
Experimental: as §1, with “cell lysates preincubated for 24 h with” for “cell conditioned media in the presence of”, “14 and following the removal of media” for “14 (20 μM)”, “Table 5” for “Table 3”, “27 and following the removal of media” for “27 (20 μM)”, “Table 6” for “Table 4”

[6] = Table A, 1 nM human liver cathepsin L, pH 5.5, 25° C., 50 μM Z-FR-AMC, read-out: Cat L IC50

Sequence of Cruzain (P25779 123-467): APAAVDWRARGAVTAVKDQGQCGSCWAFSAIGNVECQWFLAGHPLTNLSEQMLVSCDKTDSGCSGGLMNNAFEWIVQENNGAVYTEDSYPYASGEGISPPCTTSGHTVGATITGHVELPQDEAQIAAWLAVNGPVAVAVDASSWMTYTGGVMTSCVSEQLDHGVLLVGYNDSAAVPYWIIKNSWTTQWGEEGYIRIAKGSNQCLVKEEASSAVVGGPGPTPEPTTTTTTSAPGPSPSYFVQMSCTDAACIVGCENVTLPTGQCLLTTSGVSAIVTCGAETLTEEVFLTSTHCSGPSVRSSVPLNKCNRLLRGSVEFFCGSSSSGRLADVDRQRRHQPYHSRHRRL
T1 sequence (P07711 114-333): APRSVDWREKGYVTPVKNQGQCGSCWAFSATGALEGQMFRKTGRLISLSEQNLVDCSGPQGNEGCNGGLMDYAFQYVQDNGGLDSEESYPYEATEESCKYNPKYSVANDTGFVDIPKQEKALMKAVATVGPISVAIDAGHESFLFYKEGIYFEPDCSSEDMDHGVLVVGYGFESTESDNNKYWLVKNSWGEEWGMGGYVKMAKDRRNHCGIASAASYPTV

IC50 [1, 6] [nM] | IC50 [2] [nM] | SMILES | other results
> 10000 | – | CC(=O)C1=CCCc2ccccc21 [Compound 37, [1-(3,4-Dihydronaphthalenyl)]methyl ketone] | –
16200 | 80 | NC(=S)N/N=C(\c1ccccc1)c1cccc(Br)c1 [Compound 13, Phenyl(3-bromophenyl) ketone thiosemicarbazone] | –
4260 | > 17000 | NC(=S)N/N=C1\CCc2ccc(Br)cc2C1 [Compound 69, 7-Bromo-2-tetralone thiosemicarbazone] | IC50 ([3]; Table A, read-out: Cat B IC50): < 50 µM
372 | – | C=CC(=O)C1=CCCc2ccc(Br)cc21 [Compound 38] | –
2570 | – | CC/C(=N\NC(N)=S)c1cccc(O)c1 [Compound 7, 1-(3-Hydroxyphenyl)-1-propanone thiosemicarbazone] | –
– | – | CC/C(=N\NC(N)=S)c1cccc(Br)c1 [Compound 5, 3-Bromopropiophenone thiosemicarbazone] | IC50 ([1]; Table B, unit inferred, read-out: Cat L): > 10000 nM; IC50 ([3]; Table B, unit inferred, read-out: Cat B): > 50 µM
6380 | – | NC(=S)N/N=C1\CCOc2ccccc21 [Compound 26] | –
10900 | 4480 | NC(=S)N/N=C1\CCc2c(Br)cc(Br)cc2C1 [Compound 70, 5,7-Dibromo-2-tetralone thiosemicarbazone] | IC50 ([3]; Table A, read-out: Cat B IC50): > 50 µM
716 | 820 | NC(=S)N/N=C1\CCS(=O)(=O)c2c(Br)cc(Br)cc21 [Compound 24, 6,8-Dibromo-1,1-dioxo-1-thiochroman-4-one thiosemicarbazone] | –
5050 | – | NC(=S)N/N=C1\CCS(=O)(=O)c2ccccc21 [Compound 27] | activity (cathepsin L activity after activation) ([4]; control 1.50E−03, listed as 27a): 0.000101 µM/s; activity (cathepsin L activity after activation) ([4]; control 1.50E−03, listed as 27b): 9.46e-05 µM/s; activity (cathepsin L activity after activation) ([4]; control 1.50E−03, listed as 27c): 9.81e-05 µM/s; cps (cathepsin L activity after activation) ([4]; control 5848, listed as 27a): 393.7 cps; cps (cathepsin L activity after activation) ([4]; control 5848, listed as 27b): 367.5 cps; cps (cathepsin L activity after activation) ([4]; control 5848, listed as 27c): 381.1 cps; activity (cathepsin L activity after activation) ([5]; listed as 27a): 0.00308 µM/s; activity (cathepsin L activity after activation) ([5]; listed as 27b): 0.00255 µM/s; activity (cathepsin L activity after activation) ([5]; listed as 27c): 0.00275 µM/s; cps (cathepsin L activity after activation) ([5]; listed as 27a): 11990 cps; cps (cathepsin L activity after activation) ([5]; listed as 27b): 9918 cps; cps (cathepsin L activity after activation) ([5]; listed as 27c): 10690 cps
> 10000 | – | NC(=S)N/N=C1\CCc2ccccc21 [Compound 49] | –
1 | 210 | NC(=S)N/N=C1\CCS(=O)(=O)c2ccc(Br)cc21 [Compound 23, 6-Bromo-1,1-dioxo-1-thiochroman-4-one thiosemicarbazone] | –
2910 | > 7000 | NC(=S)N/N=C1\CCCC(c2ccc(Br)cc2)C1 (stereo not shown) [Compound 47] | –
2450 | > 17000 | NC(=S)N/N=C1\CCc2ccccc2O1 [Compound 48] | –
> 10000 | > 5000 | NC(=S)N/N=C1\CCC(c2ccc(Br)cc2)C1 (stereo not shown) [Compound 46] | –
5790 | 860 | CC/C(=N\NC(N)=S)c1cccc([N+](=O)[O-])c1 [Compound 6, 3-Nitropropiophenone thiosemicarbazone] | –
1640 | 3640 | CC/C(=N\NC(N)=S)c1cccc(N)c1 [Compound 8, 3-Aminopropiophenone thiosemicarbazone] | –
619 | 17 | NC(=S)N/N=C1\CCCc2ccc(Br)cc21 [Compound 21, 7-Bromo-1-tetralone thiosemicarbazone] | –

SMILES | IC50 [1, 6] [nM] | IC50 [2] [nM] | other results
NC(=S)N/N=C1\CCCc2c(Br)cccc21 [Compound 20, 5-Bromo-1-tetralone thiosemicarbazone] | 367 | 1200 | –
